Key:
CYP1A1 mRNA expression = assay: RNA blot of CYP1A1 mRNA expression in mouse hepatoma cells exposed to TCDD; format: cell-based
Description: (§1) (A) RNA blot (30 μg total RNA) showing mRNA expression in mouse hepatoma cells of TFF2, CYP1A1 and the housekeeping gene GAPDH after exposure to increasing concentrations of TCDD. Mouse hepatoma cells were cultured in 6 cm petri dishes and exposed to TCDD dissolved in dimethyl sulfoxid (DMSO, 0.1% total volume) at concentrations indicated in the figure, or vehicle alone (“0 nM”) for 24 hours before cell harvest and RNA isolation. The band intensity of TFF2 (B) and CYP1A1 (C) was measured by Phosphor Imager analysis and normalized against expression of GAPDH. The numbers represent the fold increase of TFF2 and CYP1A1 mRNA expression compared to the corresponding vehicle-treated control.
(§2) (A) RNA blot (30 μg total RNA) showing mRNA expression in mouse hepatoma cells of TFF2, CYP1A1 and the housekeeping gene GAPDH after exposure to TCDD at increasing length of time. […] The band intensity of TFF2 (B) and CYP1A1 (C) was measured by Phosphor Imager analysis and normalized against expression of GAPDH. […]
(§3) The glandular part of mouse stomachs was removed and snap-frozen in liquid nitrogen. […] The filters were hybridized with specific 32P-labeled cDNA fragments and exposed to autoradiographic film and band intensity was quantified by Phosphoimager analysis (Fuji).

TFF2 mRNA expression = assay: RNA blot of TFF2 mRNA expression in mouse hepatoma cells exposed to TCDD; format: cell-based
Description: as §1, §2, §3

[1] = 10 nM TCDD, increasing length of time, vs vehicle
[2] = increasing concentrations of TCDD, 24 hours, vs vehicle (DMSO)

## Clc1cc2c(cc1Cl)Oc1cc(Cl)c(Cl)cc1O2 [TCDD, 2,3,7,8-tetrachlorodibenzo-p-dioxin]
CYP1A1 mRNA expression; [1]
  CYP1A1 mRNA expression normalized against GAPDH: time-dependent increase
CYP1A1 mRNA expression; [2]
  CYP1A1 mRNA expression normalized against GAPDH: concentration-dependent increase
TFF2 mRNA expression; [1]
  TFF2 mRNA expression normalized against GAPDH: time-dependent increase
TFF2 mRNA expression; [2]
  TFF2 mRNA expression normalized against GAPDH: concentration-dependent increase

— patent US7569352B2, “Method for identifying modulators of the dioxin/aryl hydrocarbon receptor (AHR)” (InDex Pharmaceuticals AB, priority 2003, dated 2009)
